Measurements published in patent publication US20250332173A1, “COMPOUNDS AND METHODS FOR MODULATING NUCLEIC ACID SPLICING” (REMIX THERAPEUTICS INC., priority 2021, published 2025).
pIC50: −log10 of the molar value. Like-named read-outs stand apart in the source and are kept apart here.

What was measured:
Target C = assay: RT-qPCR splicing assay panel, Target C canonical junction (CJ) mRNA; type: cell-based, human; conditions: Homo sapiens
How it was run: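 K562/A673 cells, 11-pt 3-fold compound titration from 10 uM final, DMSO ≤0.25%, 24 h 37 °C 5% CO2; lyse (DNase I or Igepal/Tris buffer pH 7.4); RT-qPCR for CJ isoform vs housekeeping gene (GAPDH/GUSB/PPIA).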

HTT = assay: HiBiT protein abundance assay, HTT HiBiT K562 cell line; type: cell-based, human; conditions: HiBiT K562 cell line, 24 hours, top dose 10 μM; read-out: Effect on protein abundance, HTT (IC50 category)
How it was run: (§1)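 Endogenous targets in K562 knock-in lines carried a HiBiT tag and were treated for 24 h at 37 °C with 10-point 3-fold dilutions (top 10 μM final, DMSO ≤0.25%). Abundance was read as lytic Nano-Glo HiBiT luminescence. IC50 came from a four-parameter logistic fit of normalized response.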

[1] = test system: K562 (human chronic myelogenous leukemia) cells; assay: Cell Titer Glo 2.0 cell viability assay; type: cell-based; conditions: Homo sapiens, K562, 72 h, K562 cells, 72 hours, Cell Titer Glo 2.0; read-out: K562 GI50
MYB = assay: HiBiT protein abundance assay, MYB HiBiT K562 cell line; type: cell-based, human; conditions: HiBiT K562 cell line, 24 hours, top dose 10 μM; read-out: Effect on protein abundance, MYB (IC50 category)
How it was run: as §1

[2] = canonical junction qPCR panel, Table 5, read-out: Target C (decrease in CJ mRNA levels, IC50)
[3] = Table 5 panel, canonical junction qPCR, compound concentration having 50% response in CJ decrease, read-out: Target C IC50 (decrease in CJ mRNA levels)

Structure (SMILES)	pIC50 (Target C; [2])	pIC50 (HTT)	GI50 [1]	pIC50 (MYB)	pIC50 (Target C; [3])
Cn1cc2cc(-c3ccc4c(=O)n(C5CCNCC5)cnc4c3)ccc2n1 [Compound 182]		5.00 to 6.00	100 to 1000 nM	6.00 to 7.00	5.00 to 6.00
Cc1cn2nc(-c3ccc4c(=O)n(C5CCNCC5)ncc4c3)cc(C)c2n1 [Compound 186]		6.00 to 7.00	100 to 1000 nM	6.00 to 7.00	6.00 to 7.00
Cc1cn2nc(-c3ccc4c(c3F)CCN(C3CCNCC3)C4=O)cc(C)c2n1 [Compound 188]		5.00 to 6.00	1000 to 10000 nM	6.00 to 7.00	5.00 to 6.00
CN1CCC(Nc2ccc3c(=O)n(-c4ccc5cn(C)nc5c4)cnc3c2)CC1 [Compound 203]		< 5.00	> 10000 nM	< 5.00	< 5.00
Cn1cc2ccc(-n3cnc4cc(NC5CCNCC5)ccc4c3=O)cc2n1 [Compound 204]		< 5.00	> 10000 nM	< 5.00	< 5.00
Cc1cn2cc(-c3cc4ccn(C5CCNCC5)c(=O)c4cn3)cc(F)c2n1 [Compound 1196]		6.00 to 7.00	100 to 1000 nM	> 7.00	6.00 to 7.00
Cc1cn2nc(-c3cc4ccn(C5CCNCC5)c(=O)c4cn3)cc(C)c2n1 [Compound 1198, 6-(2,8-dimethylimidazo[1,2-b]pyridazin-6-yl)-2-(piperidin-4-yl)-2,7-naphthyridin-1(2H)-one]		6.00 to 7.00	100 to 1000 nM	6.00 to 7.00	6.00 to 7.00
Cc1cc(-c2cc3ccn(C4CCNCC4)c(=O)c3cn2)cc2cn(C)nc12 [Compound 1204, 6-(2,7-dimethyl-2H-indazol-5-yl)-2-(piperidin-4-yl)-2,7-naphthyridin-1(2H)-one]		6.00 to 7.00	100 to 1000 nM	6.00 to 7.00	5.00 to 6.00
Cc1cn2cc(-c3cc4ccn(C5CCNCC5)c(=O)c4cn3)nc(C)c2n1 [Compound 1205, 6-(2,8-dimethylimidazo[1,2-a]pyrazin-6-yl)-2-(piperidin-4-yl)-2,7-naphthyridin-1(2H)-one]		6.00 to 7.00	100 to 1000 nM	6.00 to 7.00	6.00 to 7.00
Cc1cc(-c2cc3ccn(C4CCN(C)CC4)c(=O)c3cn2)cc2cn(C)nc12 [Compound 1206, 6-(2,7-dimethyl-2H-indazol-5-yl)-2-(1-methylpiperidin-4-yl)-2,7-naphthyridin-1(2H)-one]		5.00 to 6.00	1000 to 10000 nM	6.00 to 7.00	< 5.00
CCN1CCC(n2ccc3cc(-c4cc(C)c5nn(C)cc5c4)ncc3c2=O)CC1 [Compound 1207, 6-(2,7-dimethyl-2H-indazol-5-yl)-2-(1-ethylpiperidin-4-yl)-2,7-naphthyridin-1(2H)-one]		5.00 to 6.00	1000 to 10000 nM	5.00 to 6.00	5.00 to 6.00
Cc1cc(-c2cc3ccn(C4CCN(C5CC5)CC4)c(=O)c3cn2)cc2cn(C)nc12 [Compound 1208, 2-(1-cyclopropylpiperidin-4-yl)-6-(2,7-dimethyl-2H-indazol-5-yl)-2,7-naphthyridin-1(2H)-one]		< 5.00	> 10000 nM	5.00 to 6.00	< 5.00
Cc1cc(-c2cc3ccn(C4CCN(C5COC5)CC4)c(=O)c3cn2)cc2cn(C)nc12 [Compound 1209, 6-(2,7-dimethyl-2H-indazol-5-yl)-2-(1-(oxetan-3-yl)piperidin-4-yl)-2,7-naphthyridin-1(2H)-one-1]		6.00 to 7.00	100 to 1000 nM	6.00 to 7.00	6.00 to 7.00
Cc1cc(-c2cc3ccn(C4CCN(CCO)CC4)c(=O)c3cn2)cc2cn(C)nc12 [Compound 1210, 6-(2.7-dimethyl-2H-indazol-5-yl)-2-(1-(2-hydroxyethyl)piperidin-4-yl)-2,7-naphthyridin-1(2H)-one]		5.00 to 6.00	1000 to 10000 nM	5.00 to 6.00	< 5.00
Cc1cn2cc(-c3cc4ccn(C5CCNC5)c(=O)c4cn3)cc(C#N)c2n1 (stereo not shown) [Compound 1214]		< 5.00	1000 to 10000 nM	5.00 to 6.00	< 5.00
COc1c(-c2cc3ccn(C4CCNCC4)c(=O)c3cn2)cc2cn(C)nc2c1F [Compound 1219]		5.00 to 6.00	1000 to 10000 nM	6.00 to 7.00	< 5.00
Cc1cn2cc(-c3ncc4c(=O)n(C5CCNC5)ccc4n3)cc(C#N)c2n1 (stereo not shown) [Compound 1221]		6.00 to 7.00	100 to 1000 nM	6.00 to 7.00	6.00 to 7.00
Cn1cc2cc(-c3ccc4c(=O)n(C5CCNCC5)ccc4n3)cc(F)c2n1 [Compound 1231]	6.00 to 7.00	6.00 to 7.00	100 to 1000 nM	6.00 to 7.00	

Other lines, results leading:

pIC50 (Target C; [2])	pIC50 (HTT)	GI50 [1]	pIC50 (MYB)	pIC50 (Target C; [3])	Structure (SMILES)
< 5.00	5.00 to 6.00	100 to 1000 nM	6.00 to 7.00		Cc1c(O)c(-c2ncc3c(=O)n(C4CCNC4)ccc3n2)cc2cn(C)nc12 (stereo in doubt) [Compound 1439, (6R)-2-(6-hydroxy-2,7-dimethyl-indazol-5-yl)-6-pyrrolidin-3-yl-pyrido[4,3-d]pyrimidin-5-one]
< 5.00	5.00 to 6.00	100 to 1000 nM	6.00 to 7.00		Cc1c(O)c(-c2ncc3c(=O)n(C4CCNC4)ccc3n2)cc2cn(C)nc12 (stereo in doubt) [Compound 1440, (6S)-2-(6-hydroxy-2,7-dimethyl-indazol-5-yl)-6-pyrrolidin-3-yl-pyrido[4,3-d]pyrimidin-5-one]
5.00 to 6.00	5.00 to 6.00	100 to 1000 nM	6.00 to 7.00		Cc1c(O)c(-c2ncc3c(=O)n([C@@H]4CC5CC4CN5)ccc3n2)cc2cn(C)nc12 (stereo in doubt) [Compound 1443, 6-[(1R,4R,5R)-2-azabicyclo[2.2.1]heptan-5-yl]-2-(6-hydroxy-2,7-dimethyl-indazol-5-yl)pyrido[4,3-d]pyrimidin-5-one]
6.00 to 7.00	6.00 to 7.00	100 to 1000 nM	6.00 to 7.00		Cc1c(O)c(-c2ncc3c(=O)n(C4C[C@H]5C[C@@H]4CN5)ccc3n2)cc2cn(C)nc12 (stereo in doubt) [Compound 1444, 6-[(1R,4R,5R)-2-azabicyclo[2.2.1]heptan-5-yl]-2-(6-hydroxy-2,7-dimethyl-indazol-5-yl)pyrido[4,3-d]pyrimidin-5-one]
< 5.00	< 5.00	100 to 1000 nM	5.00 to 6.00		Cc1c(O)c(-c2ncc3c(=O)n([C@@H]4C[C@H]5C[C@@H]4CN5)ccc3n2)cc2cn(C)nc12 (stereo in doubt) [Compound 1446, 6-[(1R,4R,5R)-2-azabicyclo[2.2.1]heptan-5-yl]-2-(6-hydroxy-2,7-dimethyl-indazol-5-yl)pyrido[4,3-d]pyrimidin-5-one]
	5.00 to 6.00	< 100 nM	5.00 to 6.00	6.00 to 7.00	Cc1c(O)c(-c2ncc3c(=O)n(C4CCNCC4)cc(C)c3n2)cc2cn(C)nc12 [Compound 1191]
	5.00 to 6.00	1000 to 10000 nM	5.00 to 6.00	5.00 to 6.00	Cn1cc2cc(-c3cc4ccn(C5CCNCC5)c(=O)c4cn3)c(O)c(F)c2n1 [Compound 1199]
	6.00 to 7.00	< 100 nM	> 7.00	5.00 to 6.00	Cn1cc2cc(-c3ncc4c(=O)n(C5CCNCC5)ccc4n3)c(O)cc2n1 [Compound 1211]
	> 7.00	100 to 1000 nM	> 7.00	6.00 to 7.00	Cn1cc2cc(-c3ncc4c(=O)n(C5CCNCC5)ccc4n3)cc(F)c2n1 [Compound 1212, 2-(7-fluoro-2-methyl-2H-indazol-5-yl)-6-(piperidin-4-yl)pyrido[4,3-d]pyrimidin-5(6H)-one]
	< 5.00	1000 to 10000 nM	6.00 to 7.00	< 5.00	Cc1cn2cc(-c3ncc4c(=O)n(C5CCNC5)ccc4n3)cc(F)c2n1 (stereo not shown) [Compound 1215]
	6.00 to 7.00	100 to 1000 nM	6.00 to 7.00	6.00 to 7.00	Cc1cn2cc(-c3ncc4c(=O)n([C@H]5CCNC5)ccc4n3)cc(F)c2n1 [Compound 1220]
	< 5.00	1000 to 10000 nM	> 7.00	< 5.00	Cc1c(O)c(-c2ncc3c(=O)n(C4CCNC4)ccc3n2)cc2cn(C)nc12 (stereo not shown) [Compound 1222]
	5.00 to 6.00	1000 to 10000 nM	6.00 to 7.00	5.00 to 6.00	Cn1cc2cc(-c3ncc4c(=O)n(C5CCNC5)ccc4n3)c(O)c(F)c2n1 (stereo not shown) [Compound 1223]
	6.00 to 7.00	100 to 1000 nM	6.00 to 7.00	6.00 to 7.00	Cc1cn2cc(-c3ncc4c(=O)n(C5CCNCC5)ccc4n3)c(O)c(C)c2n1 [Compound 1225]
	< 5.00	1000 to 10000 nM	5.00 to 6.00	< 5.00	Cc1cn2cc(-c3ncc4c(=O)n(C5CCNC5)ccc4n3)c(O)c(C)c2n1 (stereo not shown) [Compound 1227]
	< 5.00	1000 to 10000 nM	6.00 to 7.00	< 5.00	Cc1cn2cc(-c3ncc4c(=O)n([C@@H]5CCNC5)ccc4n3)cc(F)c2n1 [Compound 1228]
